# Data as given in patent US20260138976A1 (Hoffmann-La Roche Inc., priority 2022, published 2026).
# Legend:
# [1] = tested on: primary human T-cells; assay: Proliferation assay (5 days, CellTiter-Glo, CD3-stimulated T-cells); assay type: cell-based; conditions: for Emax proliferation (% activation): CD3 condition, normalised to DMSO (neutral) and 20 μM reference compound A1 = 100%; for EC50: Homo sapiens, T-cell, 120 h, CD3-stimulated primary human T-cells, 5 days, CellTiter-Glo, fitted sigmoidal curve, read-out: Tcell Proliferation CD3 EC50
# Experimental: As readouts for T-cell activation, 1L2 secretion after 24 hours and proliferation after 5 days was measured. Increases in IL2 secretion and proliferation upon compound treatment were assessed as the % of the maximum of reference compound A1. WO 2016/139181 discloses reference compound A1 as example 70. As a counter screen and to make sure that no unwanted TCR-independent activation was triggered, PBS conditions were run for all compounds.
# Expanded primary human T-cells are thawed and cultured in RPMI 1640 (Gibco, #61870-010)+5% human serum (HS, Sigma, #H3667)+1 mM Sodium Pyruvate (Gibco, #11360-039)+50 μM 2-mercaptoethanol (Gibco, #31350-010) and 1× Pen-Strep (Life Technologies, #15140122) medium at density of 2 Mio/ml for 3 hours in 5% CO2, 37° C. and 95% humidity. For coating of plates, PBS++ only or PBS++ with CD3 antibody (concentration depending on donor and determined by CD3 titrations) is added 100 μl/well to Poly-D Lysine coated 96-well plates. Plates are sealed and incubated at room temperature for 3 hours on a table-top rocking platform. After incubation, plates are washed once with PBS−− and filled with 40 μl/well culture medium only. Compounds are then added (see next section) to medium only plates. After 3 hours of culturing the T-cells, cells are filtered through a cell strainer (Miltenyi Biotech, #130-041-407), counted again and concentration is adjusted to 1.25 Mio/ml.
# Cells are then seeded 80 μl/well to the 40 μl/well including dispensed compounds according to plate layout. By adding cells, compounds are further diluted 1:3, and resulting in 100 k cells/120 μl/well. After 48 hours 40 μl of supernatant is collected carefully from the top while not disturbing the cells. Cells are assessed for proliferation 5 days later by measuring […] using CellTiterGlo (Promega).
# Compounds were added in a 5 or 6 pt dose response with the Tecan D300e Digital Dispenser, all conditions 3 times more concentrated than the end-concentration, since cells are added afterwards (80 μl cells to 40 μl prepared medium with treatment). The DR was starting at 20 μM or 10 μM final top concentration and a dilution factor of 3.333. The positive control was the reference compound A1 that was added in a dose response as well, additionally to 3 wells of only 20 μM representing the positive stimulator control. All wells were normalized with DMSO to a final concentration of 0.6% (0.2% end-concentration).
# After 5 days, for detection of ATP which is directly proportional to the number of cells present per well, the CellTiter-Glo® 2.0 Reagent is used. After visual control for toxicity or precipitations of the tested compounds, the plates are equilibrated to room temperature for 45 minutes. CellTiter-Glo® 2.0 Reagent is equilibrated to room temperature as well. After equilibration, an equal amount of CellTiter-Glo reagent is added to the cells (80 μl/well) with an electronic multichannel pipette. Plates are placed on a rocking platform for 15 minutes at room temperature. After incubation, the bottom of the plates is sealed with backing tape. Luminescence is measured with PHERAstar FSX (interval time 0.5 sec, gain 3000, focal height 15 mm) and exported as CSV file for analysis in Genedata screener.
# CD3 and PBS plates were analysed separately in Genedata Screener using Roche Normalization PCT_POS_CTRL with DMSO set as Neutral Control and 20 μM of the reference compound A1 set as Stimulator Control/100%.
# For CD3 conditions EC50 and Emax of the fitted sigmoidal curve were reported. If no curve could be fitted, the EC50 was reported as blank field and the Emax was based on individual data points. […] Compounds which activate unstimulated cells (see IL2 measurements) or compounds which negatively affected viability were flagged.
# [2] = target: T1, DGKα (hDGKalpha(1-735)-N-His) (Homo sapiens, UniProt P23743); assay: In vitro DGK inhibition assay, DGKalpha ADP Glo (in house); assay type: biochemical; conditions: 4 nM DGKα, 25 μM ATP, 125 uM DLG in liposomes, 1 hour reaction
# T1 construct: hDGKalpha(1-735)-N-His; His (N); made in house; host or cells: Sf21 insect cells (baculovirus)
# Experimental: (§1) DGKα and ζ kinases use ATP to phosphorylate the substrate 1,2-dilauroyl-sn-glycerol (DLG, incorporated in the liposomes). ATP is converted to ADP as a result of this enzymatic reaction. After the kinase reaction, an ATP-depletion reagent is added to terminate the kinase reaction and deplete any remaining ATP, leaving only ADP. Second, a detection reagent is added to simultaneously convert ADP to ATP and allow the newly synthesized ATP to be converted to light using a coupled luciferase/luciferin reaction.
# (§2) Full length DGKα and ζ were expressed in Sf21 insect cells by infecting the cells with the baculovirus stock at MOI of 2. Purification of both enzymes was performed as previously described by Takahashi et al., PeerJ, 2018 (Takahashi, D.; Sakane, F. Expression and purification of human diacylglycerol 5 kinase alpha from baculovirus-infected insect cells for structural studies. PeerJ2018, 6, No. e5449).
# (§3) A concentrated liposome solution was prepared in assay buffer without DTT and BSA: 2 mM of DLG in 21 mM of total liposome (2 mM DLG/8 mM PS/11 mM PC). The reaction mixtures contain the assay buffer with a final DLG concentration of 125 uM ATP concentrations of 25 μM (for DGKA assay) or 50 μM (for DGKZ assay). The reactions were started by addition of DGK α and ζ kinases at 4 nM and 2 nM final concentrations, respectively. After 1 hour reaction, the amount of ADP formed was detected with the ADP-Glo kinase assay (Promega) according to the manufacturer instructions. Compounds were added in 11-points dose response, starting at […], 1:3 dilutions, with a final DMSO concentration of 2%. The multidrop combi was used as a liquid handler and luminescence was read with 0.5 s by the envision reader (PE).
# [3] = target: T2, DGKζ (hDGKzeta(1-928)-N-His) (Homo sapiens, UniProt Q13574); assay: In vitro DGK inhibition assay, DGKzeta ADP Glo (in house); assay type: biochemical; conditions: 2 nM DGKζ, 50 μM ATP, 125 uM DLG in liposomes, 1 hour reaction
# T2 construct: hDGKzeta(1-928)-N-His; His (N); made in house; host or cells: Sf21 insect cells (baculovirus)
# Experimental: as §1, §2, §3
# T1 sequence (P23743 whole entry): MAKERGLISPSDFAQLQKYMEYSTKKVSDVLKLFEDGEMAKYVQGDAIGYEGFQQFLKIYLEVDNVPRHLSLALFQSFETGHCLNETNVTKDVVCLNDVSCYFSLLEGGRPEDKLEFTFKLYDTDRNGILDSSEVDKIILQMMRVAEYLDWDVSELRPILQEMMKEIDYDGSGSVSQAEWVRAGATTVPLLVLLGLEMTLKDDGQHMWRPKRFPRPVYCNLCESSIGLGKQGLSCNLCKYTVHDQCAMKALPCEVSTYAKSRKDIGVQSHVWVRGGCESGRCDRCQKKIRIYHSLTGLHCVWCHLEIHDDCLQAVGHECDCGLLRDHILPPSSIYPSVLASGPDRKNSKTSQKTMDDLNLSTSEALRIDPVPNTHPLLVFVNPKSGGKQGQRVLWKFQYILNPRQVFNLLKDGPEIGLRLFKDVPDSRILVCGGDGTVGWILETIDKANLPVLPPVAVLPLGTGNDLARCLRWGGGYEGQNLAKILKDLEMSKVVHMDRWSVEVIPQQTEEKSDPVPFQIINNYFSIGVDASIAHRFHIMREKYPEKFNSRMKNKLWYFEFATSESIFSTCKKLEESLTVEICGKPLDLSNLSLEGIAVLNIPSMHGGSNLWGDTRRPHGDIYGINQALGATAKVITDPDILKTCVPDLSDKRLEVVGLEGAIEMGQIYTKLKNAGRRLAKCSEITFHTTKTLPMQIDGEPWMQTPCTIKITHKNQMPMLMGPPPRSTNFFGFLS
# T2 sequence (Q13574 whole entry): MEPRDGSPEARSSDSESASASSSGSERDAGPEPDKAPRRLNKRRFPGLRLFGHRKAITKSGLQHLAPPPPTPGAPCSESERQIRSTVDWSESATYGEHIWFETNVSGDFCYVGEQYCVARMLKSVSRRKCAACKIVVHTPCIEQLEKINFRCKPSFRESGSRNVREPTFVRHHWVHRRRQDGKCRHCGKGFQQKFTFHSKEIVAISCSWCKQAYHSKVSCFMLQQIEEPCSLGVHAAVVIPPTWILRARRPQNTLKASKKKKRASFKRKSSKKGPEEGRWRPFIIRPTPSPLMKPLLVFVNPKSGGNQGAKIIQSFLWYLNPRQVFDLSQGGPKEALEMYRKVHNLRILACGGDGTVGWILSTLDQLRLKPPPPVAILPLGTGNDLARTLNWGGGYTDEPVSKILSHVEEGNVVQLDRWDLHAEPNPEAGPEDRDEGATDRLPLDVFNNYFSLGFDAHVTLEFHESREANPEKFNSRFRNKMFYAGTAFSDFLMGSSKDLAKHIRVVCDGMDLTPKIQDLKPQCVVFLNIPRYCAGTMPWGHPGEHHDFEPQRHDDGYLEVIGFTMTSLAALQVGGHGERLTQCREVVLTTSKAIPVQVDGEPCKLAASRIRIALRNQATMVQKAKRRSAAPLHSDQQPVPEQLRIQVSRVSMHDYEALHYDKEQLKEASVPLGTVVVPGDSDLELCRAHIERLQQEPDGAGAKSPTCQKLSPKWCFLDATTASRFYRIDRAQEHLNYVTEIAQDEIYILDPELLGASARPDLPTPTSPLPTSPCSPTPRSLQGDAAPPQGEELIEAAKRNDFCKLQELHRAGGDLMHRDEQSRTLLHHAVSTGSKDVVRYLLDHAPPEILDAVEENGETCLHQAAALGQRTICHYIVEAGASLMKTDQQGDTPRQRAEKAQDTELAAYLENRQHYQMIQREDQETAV
IC50 [2] [nM],IC50 [3] [nM],Compound,Emax proliferation (% activation) [1] [% activation],EC50 [1] [nM]
14900,6610,"COC(F)(c1nnc(-c2ccc3c(c2)N(Cc2ccc(-c4ncn(C5CC5)n4)cc2)C(=O)[C@@H](N)CS3(=O)=O)o1)C(F)(F)F (stereo partly drawn) [Example 66, (3R)-3-amino-5-[[4-(1-cyclopropyl-1,2,4-triazol-3-yl)phenyl]methyl]-1,1-dioxo-7-[5-(1,2,2,2-tetrafluoro-1-methoxy-ethyl)-1,3,4-oxadiazol-2-yl]-2,3-dihydro-1λ^6,5-benzothiazepin-4-one]",112,1290
1730,786,"CC(C)(C#N)c1nnc(-c2ccc3c(c2)N(Cc2ccc(-c4ccc(OCC(F)(F)F)cn4)cc2)C(=O)[C@@H](N)CS3(=O)=O)o1 [Example 135, 2-[5-[(3R)-3-amino-1,1,4-trioxo-5-[[4-[5-(2,2,2-trifluoroethoxy)-2-pyridyl]phenyl]methyl]-2,3-dihydro-1λ^6,5-benzothiazepin-7-yl]-1,3,4-oxadiazol-2-yl]-2-methyl-propanenitrile]",149,257
11200,660,"CC(C)(C#N)c1nnc(-c2ccc3c(c2)N(Cc2ccc(-c4ccc(OC(F)(F)F)nc4)cc2)C(=O)[C@@H](N)CS3(=O)=O)o1 [Example 137, 2-[5-[(3R)-3-amino-1,1,4-trioxo-5-[[4-[6-(trifluoromethoxy)-3-pyridyl]phenyl]methyl]-2,3-dihydro-1λ^6,5-benzothiazepin-7-yl]-1,3,4-oxadiazol-2-yl]-2-methyl-propanenitrile]",124,406
657,465,"CC(C)(C#N)c1nnc(-c2ccc3c(c2)N(Cc2ccc(-n4cc(OC(F)(F)F)cn4)cc2)C(=O)[C@@H](N)CS3(=O)=O)o1 [Example 138, 2-[5-[(3R)-3-amino-1,1,4-trioxo-5-[[4-[4-(trifluoromethoxy)pyrazol-1-yl]phenyl]methyl]-2,3-dihydro-1λ^6,5-benzothiazepin-7-yl]-1,3,4-oxadiazol-2-yl]-2-methyl-propanenitrile]",158,83.2
15500,860,"Cc1cc(-c2ccc(CN3C(=O)[C@@H](N)CS(=O)(=O)c4ccc(-c5nnc(C(C)(C)C#N)o5)cc43)cc2)ncc1OC(F)(F)F [Example 144, 2-[5-[(3R)-3-amino-5-[[4-[4-methyl-5-(trifluoromethoxy)-2-pyridyl]phenyl]methyl]-1,1,4-trioxo-2,3-dihydro-1λ^6,5-benzothiazepin-7-yl]-1,3,4-oxadiazol-2-yl]-2-methyl-propanenitrile]",87,291
18000,955,"CC(C)(C#N)c1nnc(-c2ccc3c(c2)N(Cc2ccc(-n4cc(C(F)(F)F)nn4)cc2)C(=O)[C@@H](N)CS3(=O)=O)o1 [Example 145, 2-[5-[(3R)-3-amino-1,1,4-trioxo-5-[[4-[4-(trifluoromethyl)triazo1-1-yl]phenyl]methyl]-2,3-dihydro-1λ^6,5-benzothiazepin-7-yl]-1,3,4-oxadiazol-2-yl]-2-methyl-propanenitrile]",86,4260
737,1050,"Cn1nc(OC(F)(F)F)cc1-c1ccc(CN2C(=O)[C@@H](N)CS(=O)(=O)c3ccc(-c4nnc(C(C)(C)C#N)o4)cc32)cc1 [Example 148, 2-[5-[(3R)-3-amino-5-[[4-[2-methyl-5-(trifluoromethoxy)pyrazol-3-yl]phenyl]methyl]-1,1,4-trioxo-2,3-dihydro-1λ^6,5-benzothiazepin-7-yl]-1,3,4-oxadiazol-2-yl]-2-methyl-propanenitrile]",186,182
2060,416,"N#CC1(c2nnc(-c3ccc4c(c3)N(Cc3ccc(-c5ccc(OC(F)(F)F)cn5)cc3)C(=O)[C@@H](N)CS4(=O)=O)o2)CCOCC1 [Example 173, 4-[5-[(3R)-3-amino-1,1,4-trioxo-5-[[4-[5-(trifluoromethoxy)-2-pyridyl]phenyl]methyl]-2,3-dihydro-1λ^6,5-benzothiazepin-7-yl]-1,3,4-oxadiazol-2-yl]tetrahydropyran-4-carbonitrile]",101,235
9300,1140,"CC(C)(C#N)Cc1nnc(-c2ccc3c(c2)N(Cc2ccc(-c4ccc(OC(F)(F)F)cn4)cc2)C(=O)[C@@H](N)CS3(=O)=O)o1 [Example 174, 3-[5-[(3R)-3-amino-1,1,4-trioxo-5-[[4-[5-(trifluoromethoxy)-2-pyridyl]phenyl]methyl]-2,3-dihydro-1λ^6,5-benzothiazepin-7-yl]-1,3,4-oxadiazol-2-yl]-2,2-dimethyl-propanenitrile]",124,543
1530,1550,"CCC(C#N)(CC)c1nnc(-c2ccc3c(c2)N(Cc2ccc(-c4ccc(OC(F)(F)F)cn4)cc2)C(=O)[C@@H](N)CS3(=O)=O)o1 [Example 176, 2-[5-[(3R)-3-amino-1,1,4-trioxo-5-[[4-[5-(trifluoromethoxy)-2-pyridyl]phenyl]methyl]-2,3-dihydro-1λ^6,5-benzothiazepin-7-yl]-1,3,4-oxadiazol-2-yl]-2-ethyl-butanenitrile]",140,85.7
7100,1690,"N[C@H]1CS(=O)(=O)c2ccc(-c3nnc(C4(N)CCC(F)(F)CC4)o3)cc2N(Cc2ccc(-c3ccc(OC(F)(F)F)cn3)cc2)C1=O [Example 178, (3R)-3-amino-7-[5-(1-amino-4,4-difluoro-cyclohexyl)-1,3,4-oxadiazol-2-yl]-1,1-dioxo-5-[[4-[5-(trifluoromethoxy)-2-pyridyl]phenyl]methyl]-2,3-dihydro-1λ^6,5-benzothiazepin-4-one]",96,133
